Data reported in patent US9453849B2, “Methods for staining cells for identification and sorting” (PREMIUM GENETICS (UK) LIMITED, priority 2005, dated 2016).
Where two headings read alike, the source gives them in different places.

Tests used:
DNA = settings: cited from earlier work
cell membranes = settings: not told; cited from earlier work

From the text for Bovine sperm: A sample cell was formed by two parallel glass slides coated with 1,500-2000 angstroms (Å) of indium tin oxide (ITO). The slides were separated by fragments of number zero glass cover slips, yielding a slide separation of 100 millimeters (mm).
The sample cell was connected to a resistor-capacitator (RC) circuit by alligator clips. A direct current (DC) power supply was used to charge a capacitor. When a switch was thrown, the discharging capacitor generated a time-dependant and spatially uniform electric field across the sample. An oscilloscope was used to monitor the voltage across the sample cell as a function of time.
The RC circuit formed by the sample cell and capacitor allowed for a well-controlled electric field to be generated. The resistance (R) of the circuit was left floating—that is, determined by the geometry and content of the sample cell. Typical R values ranged from 2-10,000 watts (W) depending primarily on the electrical conductivity of the buffer. The capacitance was varied from 0.1 millifarads (mF) to 1000 mF.
Bovine sperm that had been previously frozen were thawed for 60 seconds in a 96° F. water bath. Sperm were then centrifuged at 2,000 rotations per minute (rpm) for two minutes and the supernatant decanted. Sperm were then re-suspended with 0.35 M sucrose to partially dehydrate the sperm. The sperm solution was then incubated at 96° F. for 15 minutes and then transferred to the sample cell of the electroporation unit.
A voltage was applied to the capacitor circuit, and then the power supply was disconnected. A switch was then thrown and the capacitor discharged across the sample cell. These steps were carried out within 15 seconds of transferring the sperm to the sample cell to retain a random orientation of sperm with respect to the electric field. Electroporation was carried out on sperm in isotonic (0.25 M sucrose) and hypertonic (0.35 M sucrose) solutions. In each case, 10 V was applied to the capacitor and a time constant of 0.26 milliseconds (ms) measured.
A solution of 0.1 M sucrose and the DNA-specific dye, propidium iodide, was then injected into the sample cell. Fluorescence microscopy is used to image the sperm.
To distinguish fluorescent dead cells from fluorescent live cells, sperm motility was assessed.

Compound | base selectivity (Applications) (DNA) | permeability to cell membranes (Applications) (cell membranes) | DNA affinity (Applications) (DNA) | other results
Cc1c2oc3c(C)c(N)cc(C(=O)N[C@@H]4C(=O)N[C@H](C(C)C)C(=O)N5CCC[C@H]5C(=O)N(C)CC(=O)N(C)[C@@H](C(C)C)C(=O)O[C@@H]4C)c3nc-2c(C(=O)N[C@@H]2C(=O)N[C@H](C(C)C)C(=O)N3CCC[C@H]3C(=O)N(C)CC(=O)N(C)[C@@H](C(C)C)C(=O)O[C@@H]2C)c(N)c1=O [7-AAD (7-amino-actinomycin D), 7-amino-actinomycin D] | GC-selective |  |  | 
COc1ccc2nc3cc(Cl)ccc3c(N)c2c1 [ACMA, 9-amino-6-chloro-2-methoxyactridine] | AT-selective |  |  | 
COc1ccc2nc3cc(Cl)ccc3c(NCCCNCCCCNCCCNc3c4ccc(Cl)cc4nc4ccc(OC)cc34)c2c1 [Acridine homodimer] | AT-selective | Impermeant | High-affinity DNA binding | 
N=C(N)c1ccc(-c2cc3ccc(C(=N)N)cc3[nH]2)cc1 [DAPI] | AT-selective | Semi-permeant |  | 
CN1CCN(c2ccc3nc(-c4ccc5nc(-c6ccc(N(C)C)cc6)[nH]c5c4)[nH]c3c2)CC1 [Hoechst 34580] | AT-selective |  |  | dsDNA selectivity (Applications) (DNA): dsDNA-selective binding
CC[n+]1c(/C=C/C=C/c2ccc(N(C)C)cc2)ccc2cc(N(C)C)ccc21.[O-][Cl+3]([O-])([O-])[O-] [LDS 751] |  | Permeant |  | 
CC[N+](C)(CC)CCC[n+]1c(-c2ccccc2)c2cc(N)ccc2c2ccc(N)cc21.[I-].[I-] [propidium iodide] |  | Impermeant |  | increase in the number of damaged and non-motile sperm (Bovine sperm): 68%; loss of motile sperm compared to the control (Bovine sperm): 70%; motile and fluorescent sperm (Bovine sperm; control samples unexposed to electric fields): did not yield motile and fluorescent sperm; motile and fluorescent sperm (Bovine sperm; electroporated, 10 V, time constant 0.26 ms, hypertonic/hypotonic solution (0.35 M sucrose, then 0.1 M sucrose with dye)): motile and fluorescent sperm were observed; motile and fluorescent sperm (Bovine sperm; electroporated, 10 V, time constant 0.26 ms, isotonic solution (0.25 M sucrose)): motile and fluorescent sperm were observed; enhancement of the number of motile and fluorescent sperm (Bovine sperm; hypertonic/hypotonic solution compared with isotonic solution): approximately five-ten; fluorescence of observed motile sperm (Bovine sperm; hypertonic/hypotonic solution exposed to the electric field): displayed fluorescence
Ethidium homodimer-1 [Ethidium homodimer-1 (EthD-1)] |  |  | High-affinity DNA labeling | 
Ethidium homodimer-2 [Ethidium homodimer-2 (EthD-2)] |  |  | Very high-affinity DNA labeling | 
